Results taken from patent US8445707B1, “Compound, composition and uses thereof” (Krisani Biosciences (P) Ltd., priority 2012, dated 2013).
Like-named read-outs stand apart in the source and are kept apart here. Each block holds one compound with its values, some of them ahead of it.

Test: Pharmacokinetics of KB-ND-002 compared to Cysteamine Hydrochloride and EPA in mouse plasma and brain after oral administration
Assay type: in vivo, male mice
Details: for maximum concentration of Cysteamine after dosing compared to endogenous levels in control group animals: analyte Cysteamine
Method: Method of Treatment, Testing and Results Using the Final Compound of formula 1 at Charles River Labs: Pharmacokinetics of KB-ND-002 compared to Cysteamine Hydrochloride and EPA in Mouse Plasma and Brain
Parameter estimation was performed on mean plasma and brain Eicosapentanoiec acid, KB-ND-002 and Cysteamine concentration vs nominal sampling time values from 3 animals per timepoint. Parameter estimates were derived for each analyte, and matrix using a non-compartmental approach in WinNonlin Enterprise version 5.2.1 (Pharsight Corp., Mountain View, Calif., USA) in accordance with Charles River standard operating procedures. A WinNonlin regression analysis was performed with each concentration vs time profile reviewed by means of visual inspection to appropriately characterise the apparent terminal elimination phase and optimise the reliability of the lambda-z estimation.
Following Oral Administration of KB-ND-002 (Formula 1), Cysteamine or Eicosapentanoiec Acid in Male Mice, Concentration Vs Time Profiles were Partially Evaluable for PK Purposes.

systemic exposure to Cysteamine, comparison between groups (112 mg/kg Cysteamine administered): greatest
maximum concentration of Cysteamine after dosing compared to endogenous levels in control group animals (brain, oral, male mice): up to 10 fold
maximum concentration of Cysteamine after dosing compared to endogenous levels in control group animals (plasma, oral, male mice): over 400 fold
Tmax (male, mouse, brain, Group 4, 112 mg/kg Cysteamine oral, read-out: time of peak concentration of Cysteamine (Tmax)): 30 min
Tmax (male, mouse, plasma, Group 4, 112 mg/kg Cysteamine oral, read-out: time of peak concentration of Cysteamine (Tmax)): 4.8 min
Structure (SMILES): NCCS [Cysteamine]
Cysteamine concentrations quantifiable over sampling period (brain, sampling duration 5 h): quantifiable for the entire duration of sampling
Cysteamine concentrations observed over sampling period (plasma, only following administration of Cysteamine (Group 4)): only consistently observed for the entire duration of sampling

systemic exposure to Eicosapentanoiec acid, comparison between groups (112 mg/kg Eicosapentanoiec acid administered): greatest
maximum concentration of Eicosapentanoiec acid after dosing compared to endogenous levels in control group animals (analyte Eicosapentanoiec acid, plasma, oral, male mice): over 20 fold
Tmax (male, mouse, brain, Group 5, 112 mg/kg Eicosapentanoiec acid oral, read-out: time of peak concentration of Eicosapentanoiec acid (Tmax)): 60 min
Tmax (male, mouse, plasma, Group 5, 112 mg/kg Eicosapentanoiec acid oral, read-out: time of peak concentration of Eicosapentanoiec acid (Tmax)): 60 min
Structure (SMILES): CC/C=C\C/C=C\C/C=C\C/C=C\C/C=C\CCCC(=O)O [Eicosapentanoiec acid]
Eicosapentanoiec acid concentrations quantifiable over sampling period (plasma and brain, sampling duration 5 h): quantifiable for the entire duration of sampling

Structure (SMILES): CC/C=C\C/C=C\C/C=C\C/C=C\C/C=C/CCCC(=O)NCCSC(C)=O [KB-ND-002]
Kp (male, mouse, brain and plasma, oral, brain at highest dose vs plasma after low dose (60 mg/kg), read-out: systemic exposure to KB-ND-002 in brain relative to plasma): < 0.01
dose proportionality based on dose normalised estimates of Cmax and AUC(0-t) (plasma, oral KB-ND-002): sub-proportional
